The values that follow are results of earlier work, collected in patent US20060159724A1, “Nutritional supplement for the management of weight” (priority 2000, published 2006).

Read-outs that look alike come from different tables or passages of the source.

For series [1] the following is noted: area under glycemic response curve, 2-hour period after 50 g carbohydrate, divided by standard (white bread or glucose).
The mark [2] stands for this setting: first 6-week period, no dietary restrictions.

For the compound `O=C(CO)[C@@H](O)[C@H](O)[C@H](O)CO` [Fructose, fructose], the “glycemic index (GI)” value in series [1] is reported as 32.

Take `N[C@@H](Cc1c[nH]c2ccc(O)cc12)C(=O)O` [5-HTP, 5-hydroxytryptophan]: in the series on obese subjects (setting [2]), the “decrease in carbohydrate intake” value is on record as “about 50%” and the “subjects with early satiety” value is given as 100%. Further, in the series on obese subjects (obese subjects, 900 mg 5-HTP three times a day 30 minutes before meals, two 6-week periods, p<0.02 vs control arm), the weight loss is 5%. Also, in the series with obese subjects (second 6-week period, energy-restricted diet of 1,200 kcal), the “subjects with early satiety” value was 90%.
